{"source": "patent US20150072929A1", "about": "“Pharmaceutical composition comprising a mixture of carboxylated oligopeptides” (priority 2013, published 2015)", "key": {"[1]": {"test_system": "Ehrlich's ascites adenocarcinoma", "assay": "Ehrlich's ascites adenocarcinoma in Barbados mice", "details": "n = 10"}, "HeLa-2 cells": {"test_system": "HeLa-2 cells", "assay": "Anti-cancer activity in cell culture, MAD and cytopathic activity", "type": "cell-based", "details": "minimum amount causing degeneration of 90-95% of the cells, five days", "protocol": "The anti-cancer activity of MPs. The determination of the anti-cancer activity of Anticanum in a cell culture was made in a culture of HeLa-2 cells. For this purpose, 20-120 mcg of MPs per ml of medium were added to the 199 medium. (See Table 2.) A culture without MPs in it was used as a control. Cultures were observed daily over the course of five days."}, "benzidine skin sarcoma": {"test_system": "benzidine skin sarcoma", "assay": "Benzidine skin sarcoma in Barbados mice"}}, "data": [{"compound": "CC(=O)O[C@@]12CO[C@@H]1C[C@H](O)[C@@]1(C)C(=O)[C@H](O)C3=C(C)[C@@H](OC(=O)[C@H](O)[C@@H](NC(=O)OC(C)(C)C)c4ccccc4)C[C@@](O)([C@@H](OC(=O)c4ccccc4)[C@H]21)C3(C)C", "note": "[Taxotere]", "values": [{"measurement": "Time of Death of Animals after the First Injection, Average Value, Experimental Animals", "setting": "[1]; IP", "result": "14 ± 1", "unit": "days"}, {"measurement": "Time of Death of Animals after the First Injection, Average Value, Experimental Animals", "setting": "[1]; IV", "result": "15 ± 1", "unit": "days"}, {"measurement": "MAD", "setting": "HeLa-2 cells", "result": 10, "unit": "µg/mL"}, {"measurement": "Weight of Animal, After Treatment", "setting": "benzidine skin sarcoma; 100 mcg/kg parenterally twice a day for two weeks, n = 7", "result": "23 ± 1.1", "unit": "g"}, {"measurement": "Weight of Animal, Before Treatment", "setting": "benzidine skin sarcoma; baseline, n = 7", "result": "27 ± 2", "unit": "g"}, {"measurement": "Mice died", "setting": "benzidine skin sarcoma; during treatment, n = 7", "result": 2}, {"measurement": "Animal Survival", "setting": "benzidine skin sarcoma; n = 10", "result": "28 ± 1.1", "unit": "days"}]}]}
